The nature of assay [1]: Disruption of 6-his tagged KRAS G12V mutant/BRAF RBD complex (unknown origin) incubated for 3 hrs in the presence of CYPA by TR-FRET assay. Also on record: species or system Homo sapiens.
Assay [2] is described as follows: Disruption of 6-his tagged KRAS G12D mutant/BRAF RBD complex (unknown origin) incubated for 3 hrs in the presence of CYPA by TR-FRET assay. Also on record: species or system Homo sapiens.
Assay [3] in a line: Disruption of 6his-tagged KRAS G12C mutant/BRAF RBD complex (unknown origin) incubated for 3 hrs in the presence of CYPA by TR-FRET assay. Also on record: species or system Homo sapiens.
Assay [4] deals with SW-620. The experiment in a line: Anticancer activity against human SW620 cells harboring KRAS G12V mutant assessed as inhibition of cell viability incubated for 72 hrs by cell counting kit 8 method. The class given is functional, cell-based. Particulars: SW-620, 72 h.
For assay [5], the system named is AGS. The assay is described as follows: Anticancer activity against human AGS cells harboring KRAS G12D mutant assessed as inhibition of cell viability incubated for 72 hrs by cell counting kit 8 method. It is filed as functional, cell-based.
Assay [6] concerns NCI-H358. The experiment in a line: Anticancer activity against human NCI-H358 cells harboring KRAS G12C mutant assessed as inhibition of cell viability incubated for 72 hrs by cell counting kit 8 method. It is filed as functional, cell-based. Particulars: NCI-H358, 72 h.
The nature of assay [7]: Inhibition of ERK phosphorylation in human NCI-H358 cells harboring KRAS G12C mutant incubated for 4 hrs by absorbance based analysis. It is filed as cell-based. The following applies: NCI-H358, 4 h.
Assay [8] can be described thus: Inhibition of ERK phosphorylation in human SW620 cells harboring KRAS G12V mutant incubated for 4 hrs by absorbance based analysis. It is filed as cell-based. Particulars: SW-620, 4 h.
Assay [9] can be described thus: Inhibition of ERK phosphorylation in human AGS cells harboring KRAS G12D mutant incubated for 4 hrs by absorbance based analysis. It is filed as cell-based.

SMILES strings stand for the structures.

For the molecule `CO[C@@H](C)c1ncccc1-c1c2c3cc(cc4c3n1CCC4)-c1cc(O)cc(c1)C[C@H](NC(=O)[C@H](C(C)C)N(C)C(=O)C1(F)CCN(C(=O)[C@H](F)Cl)CC1)C(=O)N1CCC[C@H](N1)C(=O)OCC(C)(C)C2`, the values for the IC50 in assay [1], in assay [2] and in [3] were 164 nM, 1880 nM and 6 nM, respectively.

Turning to `CO[C@@H](C)c1ncc(N2CCOCC2)cc1-c1c2c3cc(cc4c3n1CC(F)(F)C4)-c1csc(n1)C[C@H](NC(=O)[C@H](C(C)C)N(C)C(=O)C1(F)CCN(C(=O)[C@H](F)Cl)CC1)C(=O)N1CCC[C@H](N1)C(=O)OCC(C)(C)C2`, the IC50 was 26 nM in [4], 16 nM in assay [5] and 8 nM in assay [6].

For `CO[C@@H](C)c1ncc(N2CCOCC2)cc1-c1c2c3cc(cc4c3n1CCC4)-c1csc(n1)C[C@H](NC(=O)[C@H](C(C)C)N(C)C(=O)C1(F)CCN(C(=O)[C@H](F)Cl)CC1)C(=O)N1CCC[C@H](N1)C(=O)OCC(C)(C)C2`, the results for the IC50 in assay [7], in [8] and in assay [9] were 1 nM, 23 nM and more than 10000 nM, respectively.

As for `CO[C@@H](C)c1ncccc1-c1c2c3cc(cc4c3n1CCO4)-c1cc(O)cc(c1)C[C@H](NC(=O)[C@H](C(C)C)N(C)C(=O)C1(F)CCN(C(=O)[C@H](F)Cl)CC1)C(=O)N1CCC[C@H](N1)C(=O)OCC(C)(C)C2`, the IC50 amounted to 445 nM in [1], 3910 nM in assay [2] and 16 nM in assay [3].

In the case of `CO[C@@H](C)c1ncc(N2CCN(C)CC2)cc1-c1c2c3cc(cc4c3n1CCC4)-c1csc(n1)C[C@H](NC(=O)[C@H](C(C)C)N(C)C(=O)C1(F)CCN(C(=O)[C@H](F)Cl)CC1)C(=O)N1CCC[C@H](N1)C(=O)OCC(C)(C)C2`, the IC50 came out at 107 nM in [4], 292 nM in [5] and 2 nM in assay [6].

With `CO[C@@H](C)c1ncc(N2CCN(C)CC2)cc1-c1c2c3cc(cc4c3n1CCC4)-c1csc(n1)C[C@H](NC(=O)[C@H](C(C)C)N1CCC3(CN(C(=O)[C@H](F)Cl)C3)C1=O)C(=O)N1CCC[C@H](N1)C(=O)OCC(C)(C)C2`, the half-maximal inhibitory concentration (IC50) in assay [7] amounted to 19 nM; in [8] it was 38 nM; in assay [9], 62 nM.
